Reference: ChEMBL document CHEMBL1150474, “Synthesis of new penem dithiocarbamates” (1993)

How the values were obtained:
Assay type in all cases: functional
[1] = test system: Escherichia coli; test: Antibacterial activity against Escherichia coli DC2, hyperpermeable strain
[2] = test system: Pseudomonas aeruginosa; test: Antibacterial activity against Pseudomonas aeruginosa VR5
[3] = test system: Staphylococcus aureus; test: Antibacterial activity against Staphylococcus aureus MR 0.13
[4] = test system: Staphylococcus aureus; test: Antibacterial activity against Staphylococcus aureus ATCC 25923
[5] = test system: Escherichia coli; test: Antibacterial activity against Escherichia coli ATCC 25922
[6] = test system: Pseudomonas aeruginosa; test: Antibacterial activity against Pseudomonas aeruginosa ATCC 27853

| Compound | MIC [1] | MIC [2] | MIC [3] | MIC [4] | MIC [5] | MIC [6] |
| --- | --- | --- | --- | --- | --- | --- |
| CC(=O)OCCN(CCOC(C)=O)C(=S)SCC1=C(C(=O)[O-])N2C(=O)[C@H]([C@@H](C)O)[C@H]2S1.[Na+] | 2 µg/mL | > 32 µg/mL | 0.5 µg/mL | 0.12 µg/mL | > 32 µg/mL | > 32 µg/mL |
| C[C@@H](O)[C@H]1C(=O)N2C(C(=O)[O-])=C(CSC(=S)N(C)CC(N)=O)S[C@H]12.[Na+] | 0.5 µg/mL | 4 µg/mL | 0.03 µg/mL | 0.12 µg/mL | 8 µg/mL | > 32 µg/mL |
| C[C@@H](O)[C@H]1C(=O)N2C(C(=O)[O-])=C(CSC(=S)N3CCOCC3)S[C@H]12.[Na+] | 0.5 µg/mL | 0.5 µg/mL | 0.06 µg/mL | 0.03 µg/mL | 32 µg/mL | > 32 µg/mL |
| C[C@@H](O)[C@H]1C(=O)N2C(C(=O)[O-])=C(CSC(=S)N(C)CCc3ccccn3)S[C@H]12.[Na+] | 2 µg/mL | > 32 µg/mL | 0.12 µg/mL | 0.06 µg/mL | > 32 µg/mL | > 32 µg/mL |
| C[C@@H](O)[C@H]1C(=O)N2C(C(=O)[O-])=C(CSC(=S)N(C)c3ccccc3)S[C@H]12.[Na+] | 1 µg/mL | > 32 µg/mL | 0.25 µg/mL | 0.03 µg/mL | > 32 µg/mL | > 32 µg/mL |
| C[C@@H](O)[C@H]1C(=O)N2C(C(=O)[O-])=C(CSC(=S)N3CCCC3)S[C@H]12.[Na+] | 0.5 µg/mL | > 32 µg/mL | 0.12 µg/mL | 0.03 µg/mL | > 32 µg/mL | > 32 µg/mL |
| C[C@@H](O)[C@H]1C(=O)N2C(C(=O)[O-])=C(CSC(=S)N3CCN(C(=O)c4ccc(O)c(O)c4)CC3)S[C@H]12.[Na+] | 0.5 µg/mL |  | 1 µg/mL | 0.25 µg/mL | > 32 µg/mL | > 32 µg/mL |
| C[C@@H](O)[C@H]1C(=O)N2C(C(=O)[O-])=C(CSC(=S)N3CCN(C)CC3)S[C@H]12.[Na+] | 0.5 µg/mL | 4 µg/mL | 0.06 µg/mL | 0.03 µg/mL | 4 µg/mL | > 32 µg/mL |
| CC(=O)N1CCN(C(=S)SCC2=C(C(=O)[O-])N3C(=O)[C@H]([C@@H](C)O)[C@H]3S2)CC1.[Na+] | 4 µg/mL | 16 µg/mL | 0.12 µg/mL | 0.12 µg/mL | 16 µg/mL | > 32 µg/mL |
| CC1(C)S[C@@H]2[C@H](NC(=O)[C@H](N)c3ccccc3)C(=O)N2[C@H]1C(=O)O.CC1(C)[C@H](C(=O)O)N2C(=O)C[C@H]2S1(=O)=O |  | 0.25 µg/mL | 0.12 µg/mL | 0.25 µg/mL | 8 µg/mL | 32 µg/mL |
| C[C@@H](O)[C@H]1C(=O)N2C(C(=O)[O-])=C(CSC(=S)N(C)C)S[C@H]12.[Na+] | 0.12 µg/mL | 1 µg/mL | 0.06 µg/mL | 0.03 µg/mL | 32 µg/mL | > 32 µg/mL |
| C[C@@H](O)[C@H]1C(=O)N2C(C(=O)[O-])=C(CSC(=S)N(C)c3ccccn3)S[C@H]12.[Na+] | 1 µg/mL | > 32 µg/mL | 0.5 µg/mL | 0.06 µg/mL | > 32 µg/mL | > 32 µg/mL |
| C[C@@H](O)[C@H]1C(=O)N2C(C(=O)[O-])=C(CSC(=S)N3CCNCC3)S[C@H]12.[Na+] | 4 µg/mL | 4 µg/mL | 0.25 µg/mL | 0.12 µg/mL | 8 µg/mL | > 32 µg/mL |
| C[C@@H](O)[C@H]1C(=O)N2C(C(=O)[O-])=C(CSC(=S)N(C)Cc3ccccc3)S[C@H]12.[Na+] | 1 µg/mL | 32 µg/mL | 0.5 µg/mL | 0.06 µg/mL | > 32 µg/mL | > 32 µg/mL |
| C[C@@H](O)[C@H]1C(=O)N2C(C(=O)[O-])=C(CSC(=S)N(CCO)CCO)S[C@H]12.[Na+] | 4 µg/mL | 2 µg/mL | 0.5 µg/mL | 0.25 µg/mL | 32 µg/mL | > 32 µg/mL |
| C[C@@H]([O-])[C@H]1C(=O)N2C(C(=O)[O-])=C(CSC(=S)N3CC[N+](C)(C)CC3)S[C@H]12.[Na+] | 2 µg/mL | 4 µg/mL | 0.03 µg/mL | 0.03 µg/mL | 4 µg/mL | > 32 µg/mL |
| C[C@@H](O)[C@H]1C(=O)N2C(C(=O)[O-])=C(CSC(=S)N(C)OCc3ccccc3)S[C@H]12.[Na+] | 2 µg/mL | 32 µg/mL | 0.12 µg/mL | 0.03 µg/mL | > 32 µg/mL | > 32 µg/mL |
